We go through eight compounds from PubChem BioAssay AID1259407 (Chemical Carcinogenesis Research Information System (CCRIS), 2018).

Calls of active or inactive are those of the source. The rule behind the calls is not given here.

This data set has as its system CCRIS mutagenicity, Ames/micronucleus/aberration tests. Put plainly: CCRIS mutagenicity studies.
[1] abbreviates: Test System: AMES SALMONELLA TYPHIMURIUM, Strain/Indicator: TA98, Metabolic Activation: NONE, Method: STANDARD PLATE.
The mark [2] stands for this setting: Test System: AMES SALMONELLA TYPHIMURIUM, Strain/Indicator: TA98, Metabolic Activation: RAT, LIVER, S-9, AROCLOR 1254, Method: STANDARD PLATE.
The mark [3] stands for this setting: Test System: AMES SALMONELLA TYPHIMURIUM, Strain/Indicator: TA100, Metabolic Activation: NONE, Method: STANDARD PLATE.
[4] abbreviates: Test System: AMES SALMONELLA TYPHIMURIUM, Strain/Indicator: TA100, Metabolic Activation: RAT, LIVER, S-9, AROCLOR 1254, Method: STANDARD PLATE.
Where [5] appears, read: Test System: AMES SALMONELLA TYPHIMURIUM, Strain/Indicator: TA1535, Metabolic Activation: NONE, Method: STANDARD PLATE.
Where [6] appears, read: Test System: AMES SALMONELLA TYPHIMURIUM, Strain/Indicator: TA1535, Metabolic Activation: RAT, LIVER, S-9, AROCLOR 1254, Method: STANDARD PLATE.
[7] abbreviates: Test System: AMES SALMONELLA TYPHIMURIUM, Strain/Indicator: TA1537, Metabolic Activation: NONE, Method: STANDARD PLATE.
[8] abbreviates: Test System: AMES SALMONELLA TYPHIMURIUM, Strain/Indicator: TA1537, Metabolic Activation: RAT, LIVER, S-9, AROCLOR 1254, Method: STANDARD PLATE.

As to `CSC(C)(C)/C=N/O`, the mutagenic call was “inactive; negative” (End Point: IN VITRO CHROMOSOMAL ABERRATIONS, Test System: CHO-LB CELLS, Metabolic Activation: NONE); “inactive; negative” (End Point: IN VITRO CHROMOSOMAL ABERRATIONS, Test System: CHO-LB CELLS, Metabolic Activation: RAT, LIVER, S-9, AROCLOR 1254); “inactive; negative” (Test System: AMES SALMONELLA TYPHIMURIUM, Strain/Indicator: TA98, Metabolic Activation: HAMSTER, LIVER, S-9, AROCLOR 1254, Method: STANDARD PLATE); “inactive; negative” under setting [1]; “inactive; negative” under setting [2]; “inactive; negative” (Test System: AMES SALMONELLA TYPHIMURIUM, Strain/Indicator: TA100, Metabolic Activation: HAMSTER, LIVER, S-9, AROCLOR 1254, Method: STANDARD PLATE). Also, the mutagenic call is “inactive; negative” under setting [3]; “inactive; negative” under setting [4]; “inactive; negative” (Test System: AMES SALMONELLA TYPHIMURIUM, Strain/Indicator: TA1535, Metabolic Activation: HAMSTER, LIVER, S-9, AROCLOR 1254, Method: STANDARD PLATE); “inactive; negative” under setting [5]; “inactive; negative” under setting [6]; “inactive; negative” (Test System: AMES SALMONELLA TYPHIMURIUM, Strain/Indicator: TA1537, Metabolic Activation: HAMSTER, LIVER, S-9, AROCLOR 1254, Method: STANDARD PLATE). Moreover, the mutagenic call under setting [7] was “inactive; negative”; the mutagenic call under setting [8] was “inactive; negative”; the mutagenic call (Test System: AMES SALMONELLA TYPHIMURIUM, Strain/Indicator: TA1538, Metabolic Activation: HAMSTER, LIVER, S-9, AROCLOR 1254, Method: STANDARD PLATE) was “inactive; negative”; the mutagenic call (Test System: AMES SALMONELLA TYPHIMURIUM, Strain/Indicator: TA1538, Metabolic Activation: NONE, Method: STANDARD PLATE) is “inactive; negative”; the mutagenic call (Test System: AMES SALMONELLA TYPHIMURIUM, Strain/Indicator: TA1538, Metabolic Activation: RAT, LIVER, S-9, AROCLOR 1254, Method: STANDARD PLATE) was “inactive; negative”; the mutagenic call (Test System: MOUSE LYMPHOMA, Strain/Indicator: L5178Y (TK+/TK-), Metabolic Activation: NONE, Method: SUSPENSION/PLATE) was “inactive; negative. reevaluation of results: equivocal”. Further, the mutagenic call (Test System: MOUSE LYMPHOMA, Strain/Indicator: L5178Y (TK+/TK-), Metabolic Activation: RAT, LIVER, S-9, AROCLOR 1254, Method: SUSPENSION/PLATE) was “inactive; negative. reevaluation of results: negative”.
On to `C[C@]12CC[C@H](O)C[C@@H]1CC[C@@H]1[C@@H]2CC[C@]2(C)NC(=O)CC[C@@H]12`, for which the mutagenic call under setting [1] is “inactive; negative”; the mutagenic call under setting [2] is “inactive; negative”; the mutagenic call under setting [3] is “inactive; negative”; the mutagenic call under setting [4] was “inactive; negative”; the mutagenic call under setting [5] was “inactive; negative”; the mutagenic call under setting [6] is “inactive; negative”. The mutagenic call was “inactive; negative” under setting [7] and “inactive; negative” under setting [8].
`CCCc1cc(=O)oc2c3c(c4c(c12)OC(C)(C)CC4)O[C@@H](C)[C@H](C)[C@@H]3O`: the mutagenic call by setting is: (Test System: Mouse lymphoma, Strain/Indicator: L5178Y (tk+/tk-), Metabolic Activation: None, Method: Suspension/plate) “inactive; negative”; (Test System: Mouse lymphoma, Strain/Indicator: L5178Y (tk+/tk-), Metabolic Activation: Rat, Liver, S-9, Aroclor 1254, Method: Suspension/plate) “inactive; negative”.
For `CC(C)NCC(O)COc1cccc2[nH]ccc12` (stereo unspecified), the mutagenic call reads like this: (Test System: AMES SALMONELLA TYPHIMURIUM, Strain/Indicator: TA98, Metabolic Activation: NONE) “inactive; negative”; (Test System: AMES SALMONELLA TYPHIMURIUM, Strain/Indicator: TA98, Metabolic Activation: RAT, LIVER, S-9, AROCLOR 1254) “inactive; negative”; (Test System: AMES SALMONELLA TYPHIMURIUM, Strain/Indicator: TA100, Metabolic Activation: NONE) “inactive; negative”; (Test System: AMES SALMONELLA TYPHIMURIUM, Strain/Indicator: TA100, Metabolic Activation: RAT, LIVER, S-9, AROCLOR 1254) “inactive; negative”; (Test System: AMES SALMONELLA TYPHIMURIUM, Strain/Indicator: TA1535, Metabolic Activation: NONE) “inactive; negative”; (Test System: AMES SALMONELLA TYPHIMURIUM, Strain/Indicator: TA1535, Metabolic Activation: RAT, LIVER, S-9, AROCLOR 1254) “inactive; negative”. Besides, the mutagenic call by setting is: (Test System: AMES SALMONELLA TYPHIMURIUM, Strain/Indicator: TA1537, Metabolic Activation: NONE) “inactive; negative”; (Test System: AMES SALMONELLA TYPHIMURIUM, Strain/Indicator: TA1537, Metabolic Activation: RAT, LIVER, S-9, AROCLOR 1254) “inactive; negative”.
As for `Cc1ccc2cc3ccc4ccccc4c3cc2c1`, the mutagenic call (Test System: AMES SALMONELLA TYPHIMURIUM, Strain/Indicator: TA100, Metabolic Activation: RAT, INTACT HEPATOCYTES, AROCLOR 1254, Method: PREINCUBATION) was “active; positive”; the mutagenic call (Test System: AMES SALMONELLA TYPHIMURIUM, Strain/Indicator: TA100, Metabolic Activation: RAT, NADPH-FORTIFIED HOMOGENIZED HEPATOCYTES, AROCLOR 1254, Method: PREINCUBATION) is “active; positive”; the mutagenic call (Test System: AMES SALMONELLA TYPHIMURIUM, Strain/Indicator: TA100, Metabolic Activation: RAT, SONICATED HEPATOCYTES, AROCLOR 1254, Method: PREINCUBATION) is “active; positive”.
`COc1cc(C[C@@H](CO)[C@H](CO)Cc2ccc(O)c(OC)c2)ccc1O`: the mutagenic call runs as follows: (Test System: CHINESE HAMSTER V79 CELLS, Strain/Indicator: V79 CELLS (HPRT)/6-THIOGUANINE, Metabolic Activation: NONE, Method: SUSPENSION/PLATE) “inactive; negative”; (Test System: CHINESE HAMSTER V-79, Strain/Indicator: V-79 (HPRT)/6-THIOGUANINE, Metabolic Activation: NONE) “inactive; negative”.
On to `CC(O)c1ccc2ccc3cccc4ccc1c2c34` (stereo unspecified), for which the mutagenic call (Test System: AMES SALMONELLA TYPHIMURIUM, Strain/Indicator: TA98, Metabolic Activation: HUMAN, LIVER, CYTOSOL, PAPS, Method: PREINCUBATION) is “active; positive”.
For `O=S(=O)(c1cc(Cl)cc(Cl)c1O)c1cc(Cl)cc(Cl)c1O`, the mutagenic call was “inactive; negative” (Test System: AMES SALMONELLA TYPHIMURIUM, Strain/Indicator: TA97, Metabolic Activation: NONE, Method: STANDARD PLATE); “inactive; negative” (Test System: AMES SALMONELLA TYPHIMURIUM, Strain/Indicator: TA97, Metabolic Activation: RAT, LIVER, S-9, AROCLOR 1254, Method: STANDARD PLATE); “inactive; negative” under setting [1]; “inactive; negative” under setting [2]; “inactive; negative” under setting [3]; “inactive; negative” under setting [4]. For the same compound, the mutagenic call was “inactive; negative” (Test System: AMES SALMONELLA TYPHIMURIUM, Strain/Indicator: TA102, Metabolic Activation: NONE, Method: STANDARD PLATE) and “inactive; negative” (Test System: AMES SALMONELLA TYPHIMURIUM, Strain/Indicator: TA102, Metabolic Activation: RAT, LIVER, S-9, AROCLOR 1254, Method: STANDARD PLATE).
